Test results taken from patent US20140378454A1, “NOVEL METHODS” (XSPRAY MICROPARTICLES AB, priority 2012, published 2014).
Counter-ions that a name gives are not always drawn. Blank lines part the entries; values can stand above or below the compound they belong to.

Assays:
Type in all cases: physicochemical
[1] = Dissolution measurement assay (apparent solubility) in FeSSIF, pH 5; details: for Conc (mg/L) 5 min: 5 minutes dissolution; for Conc (mg/L) 90 min: 90 minutes dissolution
Description: The method consists of adding the wished amount of powder of hybrid nanoparticles into a glass vial and then pouring in it the appropriate medium (typically FaSSIF, FeSSIF or SGF). The medium was prepared in accordance with the manufacturer's instructions. The amount of powder added depends on the wished “total PKI concentration”. […] For other experiments, the drug load was first estimated by HPLC and the amount of powder to obtain the drug concentration was calculated.
Typically, the powder was added in a 8 mL glass bottle and 7 mL of solution was added (typically FaSSIF, FeSSIF or SGF). The glass bottle was put on a shaker (approximately 1 rotation per minute) for dissolution. Samples of 500 μl where taken after different times, and subsequently centrifuged at approximately 15000 g for 3 minutes. The resulting supernatant was then analyzed by HPLC (C18 column Eclipse, 4.6 mm×15 cm, 1 mL/min, detection at 254-400 nM. Generally samples were taken after 5, 30 and 90 min and eventually 150 min.
A number of experiments were carried out, wherein nilotinib base or nilotinib HCl represented the protein kinase inhibitor. The experiments were carried out by measuring concentration of solubilized PKI (mg/L) after 5, 30 and 90 minutes dissolution in a solution at about pH 6.5, namely FaSSIF (Fasted State Simulated Intestinal Fluid). […] Samples of the solution were taken at various time intervals and the amount of protein kinase inhibitor was measured by the dissolution measurement assay described above.

[2] = Dissolution measurement assay (apparent solubility) in FaSSIF, pH 6.5; design: AUC/90 min / AUC/80 min: concentration or dose not given beside the values; details: for AUC/80 min: during 80 min dissolution
[3] = Dissolution rate measurement in sink conditions, flow through cell system, FaSSIF, 37° C.; details: sink condition in FaSSIF; for Initial Dissolution Rate: initial slope of accumulated % solubilized vs time, 0 to 10 minutes
Description: The temperature of the apparatus was set to 37° C. The amount of powder added into the cell depends on drug load of the powder: The exact amount of powder was calculated from results obtained from drug load analysis of the powders.
Typically, 3.5 to 7 mg PKI was added into the flow through cell and a flow rate between 8 and 16 ml medium/min (preferably about 8 ml medium/min) was pumped through the powder. One ml samples of the medium passing through the cell were collected at predetermined times. […] Samples were taken after 0, 0.5, 1, 1.5, 2, 3, 4, 5, 6, 7, 8, 9, 10, 15, 20, 25, 30, 35 and 40 min from the moment the medium comes out from the flow through cell. The accumulated % solubilized of the amount of active substance added into the flow through cell was calculated and plotted against time (min). The initial slope (“initial dissolution rate”) of the graph was estimated, as measured during 0 to 10 minutes, and taken as the dissolution rate of the material in sink condition at 37° C. in the given dissolution medium.

[4] = concentration of erlotinib HCl, FeSSIF solution (pH 5)
[5] = concentration of nilotinib HCl, FaSSIF solution (pH 6.5), 5 minutes dissolution, HCl
[6] = concentration of nilotinib HCl, FaSSIF solution (pH 6.5), 30 minutes dissolution, HCl
[7] = concentration of nilotinib HCl, FaSSIF solution (pH 6.5), 90 minutes dissolution, HCl
[8] = nilotinib HCl, FaSSIF solution (pH 6.5), 30 minutes dissolution, HCl
[9] = nilotinib HCl, FaSSIF solution (pH 6.5), Area Under the Curve during 90 minutes dissolution, HCl
[10] = concentration of nilotinib HCl, FeSSIF solution (pH 5)

Conc (mg/L) 3 min ([2]; 3 min, pH 6.5): 0.3 mg/L
% solubilized 40 min. ([2]; 40 min, pH 6.5): 0.1%
Conc (mg/L) 40 min ([2]; 40 min, pH 6.5): 0.3 mg/L
Conc (mg/L) 80 min ([2]; 80 min, pH 6.5): 0.4 mg/L
SMILES: CCCS(=O)(=O)Nc1ccc(F)c(C(=O)c2c[nH]c3ncc(-c4ccc(Cl)cc4)cc23)c1F [Exp 164, vemurafenib]

Initial Dissolution Rate [3]: 0.103
SMILES: CS(=O)(=O)CCNCc1ccc(-c2ccc3ncnc(Nc4ccc(OCc5cccc(F)c5)c(Cl)c4)c3c2)o1 [Exp 530, lapatinib ditosylate]

Conc (mg/L) 5 min ([2]; concentration of lapatinib after 5 min dissolution, FaSSIF pH 6.5): 2.9 mg/L
Conc (mg/L) 30 min ([2]; concentration of lapatinib after 30 min dissolution, FaSSIF pH 6.5): 6.0 mg/L
Conc (mg/L) 90 min ([2]; concentration of lapatinib after 90 min dissolution, FaSSIF pH 6.5): 6.5 mg/L
% solubilized 30 min. ([2]; lapatinib, 30 min dissolution, FaSSIF pH 6.5): 0.3%
AUC/90 min ([2]; lapatinib, during 90 min dissolution, FaSSIF pH 6.5): 494 Mg/min/L
SMILES: CS(=O)(=O)CCNCc1ccc(-c2ccc3ncnc(Nc4ccc(OCc5cccc(F)c5)c(Cl)c4)c3c2)o1 [Exp 110, lapatinib base]

Initial Dissolution Rate [3]: 0.47
SMILES: CNC(=O)c1cc(Oc2ccc(NC(=O)Nc3ccc(Cl)c(C(F)(F)F)c3)cc2)ccn1 [Exp 560, sorafenib tosylate]

Conc (mg/L) 5 min [2, 5]: 0.2 mg/L
Conc (mg/L) 30 min [2, 6]: 0.2 mg/L
Conc (mg/L) 90 min [2, 7]: 0.2 mg/L
% solubilized 30 min. [2, 8]: 0.04%
AUC/90 min Mg/min/L [2, 9]: 23.5 Mg/min/L
SMILES: Cc1cn(-c2cc(NC(=O)c3ccc(C)c(Nc4nccc(-c5cccnc5)n4)c3)cc(C(F)(F)F)c2)cn1 [Exp 2, Nilotinib HCl]

Conc (mg/L) 5 min [1, 10]: 0.6 mg/L
Conc (mg/L) 30 min ([1]; concentration of nilotinib HCl, FeSSIF solution (pH 5), 30 minutes dissolution): 0.9 mg/L
Conc (mg/L) 90 min [1, 10]: 0.9 mg/L
% solubilized 30 min. ([1]; nilotinib HCl, FeSSIF solution (pH 5), 30 minutes dissolution): 0.18%
AUC/90 min Mg/min/L ([1]; nilotinib HCl, FeSSIF solution (pH 5), Area Under the Curve during 90 minutes dissolution): 74.3 Mg/min/L
SMILES: Cc1cn(-c2cc(NC(=O)c3ccc(C)c(Nc4nccc(-c5cccnc5)n4)c3)cc(C(F)(F)F)c2)cn1 [Exp 41, Nilotinib HCl]

Initial Dissolution Rate [3]: 0.27
SMILES: Cc1cn(-c2cc(NC(=O)c3ccc(C)c(Nc4nccc(-c5cccnc5)n4)c3)cc(C(F)(F)F)c2)cn1 [Exp 500, nilotinib HCl]

Conc (mg/L) 5 min ([2]; concentration of nilotinib HCl, FaSSIF solution (pH 6.5), 5 minutes dissolution): 0.6 mg/L
Conc (mg/L) 30 min ([2]; concentration of nilotinib HCl, FaSSIF solution (pH 6.5), 30 minutes dissolution): 0.5 mg/L
Conc (mg/L) 90 min ([2]; concentration of nilotinib HCl, FaSSIF solution (pH 6.5), 90 minutes dissolution): 0.2 mg/L
% solubilized 30 min. ([2]; nilotinib HCl, FaSSIF solution (pH 6.5), 30 minutes dissolution): 0.50%
AUC/90 min Mg/min/L ([2]; nilotinib HCl, FaSSIF solution (pH 6.5), Area Under the Curve during 90 minutes dissolution): 36.5 Mg/min/L
SMILES: Cc1cn(-c2cc(NC(=O)c3ccc(C)c(Nc4nccc(-c5cccnc5)n4)c3)cc(C(F)(F)F)c2)cn1 [Exp 4, Nilotinib Base]

Accumulated % of solubilized of remaining active substance at a given time (min) ([3]; 0 min): 0.2%
Accumulated % of solubilized of remaining active substance at a given time (min) ([3]; 0.5 min): 0.4%
Accumulated % of solubilized of remaining active substance at a given time (min) ([3]; 1 min): 0.7%
Accumulated % of solubilized of remaining active substance at a given time (min) ([3]; 1.5 min): 1.0%
Accumulated % of solubilized of remaining active substance at a given time (min) ([3]; 2 min): 1.3%
Accumulated % of solubilized of remaining active substance at a given time (min) ([3]; 3 min): 1.8%
Accumulated % of solubilized of remaining active substance at a given time (min) ([3]; 4 min): 2.2%
Accumulated % of solubilized of remaining active substance at a given time (min) ([3]; 5 min): 2.6%
Accumulated % of solubilized of remaining active substance at a given time (min) ([3]; 6 min): 3.0%
Accumulated % of solubilized of remaining active substance at a given time (min) ([3]; 7 min): 3.4%
Accumulated % of solubilized of remaining active substance at a given time (min) ([3]; 8 min): 3.8%
Accumulated % of solubilized of remaining active substance at a given time (min) ([3]; 9 min): 4.2%
Accumulated % of solubilized of remaining active substance at a given time (min) ([3]; 10 min): 4.6%
Accumulated % of solubilized of remaining active substance at a given time (min) ([3]; 20 min): 8.8%
Accumulated % of solubilized of remaining active substance at a given time (min) ([3]; 30 min): 12.6%
Accumulated % of solubilized of remaining active substance at a given time (min) ([3]; 40 min): 16.4%
SMILES: CNC(=O)c1cc(Oc2ccc(NC(=O)Nc3ccc(Cl)c(C(F)(F)F)c3)cc2)ccn1.Cc1ccc(S(=O)(=O)O)cc1 [Experiment 560]

Conc (mg/L) 3 min ([2]; 3 min, pH 6.5): 59.1 mg/L
% solubilized 40 min. ([2]; 40 min, pH 6.5): 34.4%
Conc (mg/L) 40 min ([2]; 40 min, pH 6.5): 343.5 mg/L
Conc (mg/L) 80 min ([2]; 80 min, pH 6.5): 311.5 mg/L
SMILES: CNC(=O)c1cc(Oc2ccc(NC(=O)Nc3ccc(Cl)c(C(F)(F)F)c3)cc2)ccn1 [Exp 142, sorafenib tosylate]

More lines, now with the values behind:

SMILES: C#Cc1cccc(Nc2ncnc3cc(OCCOC)c(OCCOC)cc23)c1 [Exp 69, Erlotinib HCl]
Conc (mg/L) 5 min [1, 4]: 156.8 mg/L
Conc (mg/L) 30 min ([1]; concentration of erlotinib HCl, FeSSIF solution (pH 5), 30 minutes dissolution): 189.9 mg/L
Conc (mg/L) 90 min [1, 4]: 196 mg/L
% solubilized 30 min. ([1]; erlotinib HCl, FeSSIF pH 5, 30 min dissolution): 19.0%
AUC/90 min Mg/min/L ([1]; erlotinib HCl, FeSSIF pH 5, during 90 min dissolution): 16303 Mg/min/L

SMILES: C#Cc1cccc(Nc2ncnc3cc(OCCOC)c(OCCOC)cc23)c1 [Exp 58, erlotinib HCl]
Conc (mg/L) 5 min ([2]; 5 min, pH 6.5): 28.9 mg/L
Conc (mg/L) 30 min ([2]; 30 min, pH 6.5): 6.25 mg/L
Conc (mg/L) 90 min ([2]; 90 min, pH 6.5): 4.6 mg/L
% solubilized 30 min. ([2]; erlotinib HCl, FaSSIF pH 6.5, 30 min dissolution): 0.6%
AUC/90 min Mg/min/L ([2]; erlotinib HCl, FaSSIF pH 6.5, during 90 min dissolution): 837 Mg/min/L

SMILES: Cc1cn(-c2cc(NC(=O)c3ccc(C)c(Nc4nccc(-c5cccnc5)n4)c3)cc(C(F)(F)F)c2)cn1 [Exp 3, Nilotinib HCl]
Conc (mg/L) 5 min [2, 5]: 0.2 mg/L
Conc (mg/L) 30 min [2, 6]: 0.3 mg/L
Conc (mg/L) 90 min [2, 7]: 0.2 mg/L
% solubilized 30 min. [2, 8]: 0.03%
AUC/90 min Mg/min/L [2, 9]: 21.8 Mg/min/L

SMILES: C[C@@H](Oc1cc(-c2cnn(C3CCNCC3)c2)cnc1N)c1c(Cl)ccc(F)c1Cl [Exp 150, crizotinib]
Conc (mg/L) 3 min ([2]; 3 min, pH 6.5): 89.3 mg/L
% solubilized 40 min. ([2]; 40 min, pH 6.5): 22.7%
Conc (mg/L) 40 min ([2]; 40 min, pH 6.5): 226.5 mg/L
Conc (mg/L) 80 min ([2]; 80 min, pH 6.5): 295.6 mg/L

SMILES: COc1cc2ncnc(Nc3ccc(F)c(Cl)c3)c2cc1OCCCN1CCOCC1 [Exp 131, gefitinib]
Conc (mg/L) 3 min ([2]; concentration of gefitinib after 3 min dissolution, FaSSIF pH 6.5): 121.8 mg/L
Conc (mg/L) 40 min ([2]; concentration of gefitinib after 40 min dissolution, FaSSIF pH 6.5): 153.1 mg/L
Conc (mg/L) 80 min ([2]; concentration of gefitinib after 80 min dissolution, FaSSIF pH 6.5): 148.1 mg/L
% solubilized 40 min. ([2]; gefitinib, 40 min dissolution, FaSSIF pH 6.5): 15.3%
AUC/80 min ([2]; gefitinib, FaSSIF pH 6.5): 5967 Mg/min/L

SMILES: Cc1nc(Nc2ncc(C(=O)Nc3c(C)cccc3Cl)s2)cc(N2CCN(CCO)CC2)n1 [Exp 138, dasatinib]
Conc (mg/L) 3 min ([2]; 3 min, pH 6.5): 34.5 mg/L
Conc (mg/L) 40 min ([2]; 40 min, pH 6.5): 59.7 mg/L
Conc (mg/L) 80 min ([2]; 80 min, pH 6.5): 63.5 mg/L
% solubilized 40 min. ([2]; dasatinib, 40 min dissolution, FaSSIF pH 6.5): 6.0%
AUC/80 min ([2]; dasatinib, FaSSIF pH 6.5): 2396 Mg/min/L

SMILES: C#Cc1cccc(Nc2ncnc3cc(OCCOC)c(OCCOC)cc23)c1 [Exp 510, erlotinib HCl]
Initial Dissolution Rate [3]: 0.303

SMILES: Cc1ccc(Nc2nccc(N(C)c3ccc4c(C)n(C)nc4c3)n2)cc1S(N)(=O)=O [Exp 84, pazopanib]
Conc (mg/L) 5 min ([2]; 5 min, pH 6.5): 46.2 mg/L
% solubilized 30 min. ([2]; 30 min, pH 6.5): 2.4%
Conc (mg/L) 30 min ([2]; 30 min, pH 6.5): 24.4 mg/L
Conc (mg/L) 90 min ([2]; 90 min, pH 6.5): 15.0 mg/L

SMILES: Cc1cn(-c2cc(NC(=O)c3ccc(C)c(Nc4nccc(-c5cccnc5)n4)c3)cc(C(F)(F)F)c2)cn1 [Exp 1, Nilotinib HCl]
Conc (mg/L) 5 min [2, 5]: 0.1 mg/L
Conc (mg/L) 30 min [2, 6]: 0.2 mg/L
Conc (mg/L) 90 min [2, 7]: 0.1 mg/L
% solubilized 30 min. [2, 8]: 0.20%
AUC/90 min Mg/min/L [2, 9]: 13.0 Mg/min/L

SMILES: COc1cc2ncnc(Nc3ccc(F)c(Cl)c3)c2cc1OCCCN1CCOCC1 [Exp 540, gefitinib]
Initial Dissolution Rate [3]: 2.2

SMILES: CNC(=O)c1ccccc1Sc1ccc2c(/C=C/c3ccccn3)n[nH]c2c1 [Exp 157, axitinib]
Conc (mg/L) 3 min ([2]; 3 min, pH 6.5): 0.6 mg/L
Conc (mg/L) 40 min ([2]; 40 min, pH 6.5): 0.6 mg/L
Conc (mg/L) 80 min ([2]; 80 min, pH 6.5): 0.6 mg/L
% solubilized 40 min. ([2]; axitinib, 40 min dissolution, FaSSIF pH 6.5): 0.1%
AUC/80 min ([2]; axitinib, FaSSIF pH 6.5): 47 Mg/min/L

SMILES: C[C@@H](Oc1cc(-c2cnn(C3CCNCC3)c2)cnc1N)c1c(Cl)ccc(F)c1Cl [Exp 570, crizotinib]
Initial Dissolution Rate [3]: 6.6
